Source: ChEMBL document CHEMBL1201862, “PubChem BioAssay data set” (2004)
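Five concentrations, 48 hours, 96-well plates. At the GI50, growth is halved.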 The source made the active and inactive calls. Cut-off read from the data, not from the text of the source: active = GI50 up to about 1.1 µM and inactive = higher.

Key:
Assay in all cases: NCI anticancer screen, dose series, 48 h
SF-539 = tested on: SF-539
OVCAR-4 = tested on: OVCAR-4
TK-10 = tested on: TK-10
U-251 = tested on: U-251
SR = tested on: SR
HCT-116 = tested on: HCT-116
HCC 2998 = tested on: HCC 2998
UO-31 = tested on: UO-31
LOX IMVI = tested on: LOX IMVI
NCI-H460 = tested on: NCI-H460
ACHN = tested on: ACHN
UACC-257 = tested on: UACC-257
NCI-H23 = tested on: NCI-H23
Malme-3M = tested on: Malme-3M
SNB-19 = tested on: SNB-19
SW-620 = tested on: SW-620
SK-MEL-5 = tested on: SK-MEL-5
COLO 205 = tested on: COLO 205
NCI/ADR-RES = tested on: NCI/ADR-RES
K562 = tested on: K562

| Structure (SMILES) | GI50 (SF-539) | GI50 (OVCAR-4) | GI50 (TK-10) | GI50 (U-251) | GI50 (SR) | GI50 (HCT-116) | GI50 (HCC 2998) | GI50 (UO-31) | GI50 (LOX IMVI) | GI50 (NCI-H460) | GI50 (ACHN) | GI50 (UACC-257) | GI50 (NCI-H23) | GI50 (Malme-3M) | GI50 (SNB-19) | GI50 (SW-620) | GI50 (SK-MEL-5) | GI50 (COLO 205) | GI50 (NCI/ADR-RES) | GI50 (K562) |
| --- | --- | --- | --- | --- | --- | --- | --- | --- | --- | --- | --- | --- | --- | --- | --- | --- | --- | --- | --- | --- |
| O=[N+]([O-])c1ccc(-c2nc3cc([N+](=O)[O-])ccc3[nH]2)cc1 | 23.5 µM (inactive) | 47.2 µM (inactive) | 52.2 µM (inactive) | 25.4 µM (inactive) | 29 µM (inactive) | 19 µM (inactive) | 50.2 µM (inactive) | 7.66 µM (inactive) | 26.5 µM (inactive) | 22 µM (inactive) | 31 µM (inactive) | 31 µM (inactive) | 21.4 µM (inactive) | 31.3 µM (inactive) | 43.1 µM (inactive) | 41.3 µM (inactive) | 16.8 µM (inactive) | 14.3 µM (inactive) | 17.6 µM (inactive) |  |
| OC(c1cc(C(F)(F)F)nc2c(Cl)cc(Cl)cc12)C1CCCCN1 (configuration not stated) | 14 µM (inactive) | 5.01 µM (inactive) |  | 25.4 µM (inactive) | 1.66 µM (inactive) | 13.6 µM (inactive) | > 100 µM (inactive) | 0.906 µM (active) | 2.93 µM (inactive) | 6.82 µM (inactive) | > 24.4 µM (inactive) |  | 8.55 µM (inactive) |  | > 36.5 µM (inactive) | 5.89 µM (inactive) | 8.65 µM (inactive) | 3.22 µM (inactive) | 10.5 µM (inactive) | 5.22 µM (inactive) |
| C[C@]12CC[C@@H]3c4ccc(O)cc4CC[C@H]3[C@@H]1C/C(=C\c1ccncc1)C2=O | 10.9 µM (inactive) | 15.6 µM (inactive) | 29.2 µM (inactive) | 16.1 µM (inactive) | 6.32 µM (inactive) |  | 30.6 µM (inactive) | 35.6 µM (inactive) | 20.7 µM (inactive) | 9.4 µM (inactive) | 20.1 µM (inactive) | 27.5 µM (inactive) | 29 µM (inactive) | 14.1 µM (inactive) | 38.5 µM (inactive) | 27.5 µM (inactive) | 8.04 µM (inactive) | 29.7 µM (inactive) | 17.5 µM (inactive) | 8.61 µM (inactive) |
| Nc1nc(N)c2cc(Sc3ccc4nc(N)nc(N)c4c3)ccc2n1 | > 100 µM (inactive) | > 100 µM (inactive) | > 100 µM (inactive) | > 100 µM (inactive) | > 100 µM (inactive) | 0.2 µM (active) | 0.558 µM (active) | > 100 µM (inactive) | 0.0408 µM (active) | < 0.0145 µM (active) | 0.493 µM (active) | > 100 µM (inactive) |  |  | 4.23 µM (inactive) |  |  | 10.9 µM (inactive) | > 31.6 µM (inactive) | < 0.01 µM (active) |
| CC1(O)OC(=O)C2=C1CCC1C2CCC2(C)C(O)CCC12 (configuration not stated) | > 100 µM (inactive) | > 100 µM (inactive) | > 100 µM (inactive) | > 100 µM (inactive) | > 100 µM (inactive) | > 100 µM (inactive) | > 100 µM (inactive) | > 100 µM (inactive) | 25.6 µM (inactive) | > 100 µM (inactive) | > 100 µM (inactive) | > 100 µM (inactive) | > 100 µM (inactive) | > 100 µM (inactive) | > 100 µM (inactive) | > 100 µM (inactive) | > 100 µM (inactive) |  | > 100 µM (inactive) | > 100 µM (inactive) |
| C=C(C)C(=O)[C@@]12C(=O)[C@@H](C)CC[C@H]1[C@H](C)C[C@@H]2C=C(C)C | 19.9 µM (inactive) | 28.8 µM (inactive) | 47.6 µM (inactive) | 23.6 µM (inactive) | > 10 µM (inactive) | 14.9 µM (inactive) | 14.8 µM (inactive) | 20.2 µM (inactive) | 18.7 µM (inactive) |  | 12.9 µM (inactive) | 15.2 µM (inactive) | 15.4 µM (inactive) | 18 µM (inactive) | 12.6 µM (inactive) | 20.2 µM (inactive) | 19.4 µM (inactive) | 18.8 µM (inactive) | 27.8 µM (inactive) | 29.6 µM (inactive) |
| CC(=O)O[C@@H]1[C@H]2[C@@H](OC(=O)c3ccccc3)[C@@H](C)C[C@]2(O)[C@H](OC(C)=O)[C@@]2(C)[C@@H]3C[C@@](C)(OC(C)=O)C[C@@H](OC(C)=O)[C@@]3(OC(C)=O)C[C@@]12C | > 10 µM (inactive) | > 10 µM (inactive) | > 10 µM (inactive) | > 10 µM (inactive) | > 10 µM (inactive) | > 10 µM (inactive) | > 10 µM (inactive) | > 10 µM (inactive) | > 10 µM (inactive) | > 10 µM (inactive) | > 10 µM (inactive) | > 10 µM (inactive) | > 10 µM (inactive) |  | > 10 µM (inactive) | > 10 µM (inactive) | > 10 µM (inactive) | > 10 µM (inactive) | > 10 µM (inactive) | > 10 µM (inactive) |
| O=C1CC(=O)c2c(O)cc(O)c(c2O)-c2c(ccc(O)c2O)C2=CC(=O)c3c(O)cc(O)c(c3O2)-c2c1ccc(O)c2O.O=C1CC2(O)Oc3c1c(O)cc(O)c3-c1c(ccc(O)c1O)-c1cc(=O)c3c(O)cc(O)c(c3o1)-c1c2ccc(O)c1O | > 50 µM (inactive) | > 50 µM (inactive) | > 50 µM (inactive) | > 50 µM (inactive) | > 50 µM (inactive) | > 50 µM (inactive) | > 50 µM (inactive) | > 50 µM (inactive) | > 50 µM (inactive) | > 50 µM (inactive) |  | > 50 µM (inactive) | > 50 µM (inactive) | > 50 µM (inactive) | > 50 µM (inactive) | > 50 µM (inactive) | > 50 µM (inactive) | > 50 µM (inactive) | > 50 µM (inactive) | > 50 µM (inactive) |
| COc1ccc2c3c1OC1C(F)C=CC4(O)C(C2)NCCC314 (configuration not stated) |  | 1.95 µM (inactive) | 3.51 µM (inactive) | 2.2 µM (inactive) | 0.92 µM (active) | 1.24 µM (inactive) | 3.18 µM (inactive) | 1.55 µM (inactive) | 2.31 µM (inactive) | 4.97 µM (inactive) | 2.65 µM (inactive) | 11.1 µM (inactive) | 1.92 µM (inactive) | 1.97 µM (inactive) | 1.81 µM (inactive) | 1.37 µM (inactive) | 3.94 µM (inactive) | 1.44 µM (inactive) | 3.94 µM (inactive) | 0.805 µM (active) |
| Clc1ccc(C(SCc2ccccc2)SCc2ccccc2)cc1 | > 10 µM (inactive) | > 10 µM (inactive) | > 10 µM (inactive) | > 10 µM (inactive) | > 10 µM (inactive) | > 10 µM (inactive) | > 10 µM (inactive) | > 10 µM (inactive) | > 10 µM (inactive) | > 10 µM (inactive) | > 10 µM (inactive) | > 10 µM (inactive) | > 10 µM (inactive) | > 10 µM (inactive) | > 10 µM (inactive) | > 10 µM (inactive) | > 10 µM (inactive) | > 10 µM (inactive) | > 10 µM (inactive) | > 10 µM (inactive) |
| COC(=O)c1cc2c(cc1CC(Cc1ccc3c(c1)CCC3)C(=O)OC)CCC2 (configuration not stated) | 35 µM (inactive) | 24 µM (inactive) | 88.5 µM (inactive) | 50.9 µM (inactive) | 11 µM (inactive) | 40.7 µM (inactive) | 34.5 µM (inactive) | 63.7 µM (inactive) | 40.6 µM (inactive) | 65.5 µM (inactive) | 45.7 µM (inactive) | 13.7 µM (inactive) | 63.5 µM (inactive) | 41.3 µM (inactive) | > 100 µM (inactive) | 74 µM (inactive) | 17.6 µM (inactive) | 29.5 µM (inactive) | 57.5 µM (inactive) | 34.2 µM (inactive) |
| N#C/C(N)=C(C#N)/N=C/NCc1ccccc1 | > 100 µM (inactive) | > 100 µM (inactive) | > 100 µM (inactive) | > 100 µM (inactive) | > 100 µM (inactive) | > 100 µM (inactive) | > 100 µM (inactive) | > 100 µM (inactive) | > 100 µM (inactive) | > 100 µM (inactive) | > 100 µM (inactive) | > 100 µM (inactive) | > 100 µM (inactive) | > 100 µM (inactive) | > 100 µM (inactive) | > 100 µM (inactive) | > 100 µM (inactive) | > 100 µM (inactive) | 50.1 µM (inactive) | > 100 µM (inactive) |
| c1ccc(C(NC2=NCCO2)C2CC2)cc1 (configuration not stated) | 32.3 µM (inactive) | > 100 µM (inactive) | > 100 µM (inactive) | > 100 µM (inactive) | > 100 µM (inactive) | 82.8 µM (inactive) | > 100 µM (inactive) | > 100 µM (inactive) | > 100 µM (inactive) | 75.2 µM (inactive) | > 100 µM (inactive) | > 100 µM (inactive) | > 100 µM (inactive) | > 100 µM (inactive) | 88.9 µM (inactive) | > 100 µM (inactive) | > 100 µM (inactive) | > 100 µM (inactive) | > 100 µM (inactive) |  |
| O=c1c(-c2ccc(O)cc2)coc2cc(O)cc(O)c12 [GENISTEIN] | > 100 µM (inactive) | > 100 µM (inactive) | > 100 µM (inactive) | > 100 µM (inactive) | 56.8 µM (inactive) |  | > 100 µM (inactive) | 24.9 µM (inactive) |  | 42 µM (inactive) | 29.7 µM (inactive) |  | > 100 µM (inactive) | > 100 µM (inactive) | 92 µM (inactive) | 49.2 µM (inactive) | > 100 µM (inactive) | > 100 µM (inactive) | > 100 µM (inactive) | > 100 µM (inactive) |
